Values joined by “and” are separate entries in the source; they are usually repeats but may differ in a detail not shown here. Identical values can stand only once. Toxic doses and inconclusive results are not listed.
System: BDF1 mice, P388 leukemia ip, median survival T/C
Test: NCI In Vivo Anticancer Drug Screen. Data for tumor model P388 Leukemia (intraperitoneal) in B6D2F1 (BDF1) mice
Conditions: endpoint: median survival time, higher = longer survival
Outline: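 Vehicle-dosed animals serve as the reference; survival of compound-dosed, tumour-implanted mice is divided by it.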

[1] = dose: 50.0 mg/kg/injection, schedule: Q01DX009 (ip), vehicle: saline with Tween-80
[2] = dose: 50.0 mg/kg/injection, schedule: Q04DX003 (ip), vehicle: saline with Tween-80
[3] = dose: 100.0 mg/kg/injection, schedule: Q01DX009 (ip), vehicle: saline with Tween-80
[4] = dose: 100.0 mg/kg/injection, schedule: Q04DX003 (ip), vehicle: saline with Tween-80
[5] = dose: 200.0 mg/kg/injection, schedule: Q01DX009 (ip), vehicle: saline with Tween-80
[6] = dose: 200.0 mg/kg/injection, schedule: Q04DX003 (ip), vehicle: saline with Tween-80
[7] = dose: 4.0 mg/kg/injection, schedule: Q01DX009 (ip), vehicle: saline with Tween-80
[8] = dose: 8.0 mg/kg/injection, schedule: Q01DX009 (ip), vehicle: saline with Tween-80
[9] = dose: 11.0 mg/kg/injection, schedule: Q01DX009 (ip), vehicle: saline with Tween-80
[10] = dose: 12.0 mg/kg/injection, schedule: Q01DX009 (ip), vehicle: saline with Tween-80
[11] = dose: 16.5 mg/kg/injection, schedule: Q01DX009 (ip), vehicle: saline with Tween-80
[12] = dose: 100.0 mg/kg/injection, schedule: Q04DX003 (ip), vehicle: saline
[13] = dose: 200.0 mg/kg/injection, schedule: Q04DX003 (ip), vehicle: saline
[14] = dose: 400.0 mg/kg/injection, schedule: Q04DX003 (ip), vehicle: saline
[15] = dose: 12.5 mg/kg/injection, schedule: Q01DX009 (ip), vehicle: saline with Tween-80
[16] = dose: 25.0 mg/kg/injection, schedule: Q01DX009 (ip), vehicle: saline with Tween-80
[17] = dose: 100.0 mg/kg/injection, schedule: Q04DX003 (ip), vehicle: Klucel (hydroxypropylcellulose) (HPC)
[18] = dose: 200.0 mg/kg/injection, schedule: Q04DX003 (ip), vehicle: Klucel (hydroxypropylcellulose) (HPC)
[19] = dose: 400.0 mg/kg/injection, schedule: Q04DX003 (ip), vehicle: Klucel (hydroxypropylcellulose) (HPC)
[20] = dose: 400.0 mg/kg/injection, schedule: Q01DX009 (ip), vehicle: saline with Tween-80

Cc1ccc2n[nH]nc2c1
T/C (dose: 25.0 mg/kg/injection, schedule: Q01DX009 (ip), vehicle: Klucel (hydroxypropylcellulose) (HPC)): 99 % of control | T/C (dose: 50.0 mg/kg/injection, schedule: Q01DX009 (ip), vehicle: Klucel (hydroxypropylcellulose) (HPC)): 111 % of control | T/C (dose: 100.0 mg/kg/injection, schedule: Q01DX009 (ip), vehicle: Klucel (hydroxypropylcellulose) (HPC)): 107 % of control | T/C (dose: 200.0 mg/kg/injection, schedule: Q01DX009 (ip), vehicle: Klucel (hydroxypropylcellulose) (HPC)): 102 % of control

S=C(N/N=C/c1ccc(-c2ccccc2)cc1)Nc1ccccc1
T/C [1]: 91 % of control | T/C [2]: 95 % of control | T/C [3]: 91 % of control | T/C [4]: 91 % of control | T/C [5]: 91 % of control | T/C [6]: 91 % of control

CN=C(N)c1ccc(N=C(N)c2ccc(N=C(N)c3ccc(N=C(O)c4cccc(C(O)=Nc5ccc(C(N)=Nc6ccc(C(N)=Nc7ccc(C(N)=NC)cc7)cc6)cc5)c4)cc3)cc2)cc1
T/C [7]: 154 % of control | T/C (dose: 4.0 mg/kg/injection, schedule: Q04DX003 (ip), vehicle: saline with Tween-80): 123 % of control | T/C (dose: 6.0 mg/kg/injection, schedule: Q04DX003 (ip), vehicle: saline with Tween-80): 150 % of control | T/C [8]: 177 % of control | T/C (dose: 9.0 mg/kg/injection, schedule: Q04DX003 (ip), vehicle: saline with Tween-80): 168 % of control | T/C [9]: 200 % of control | T/C [10]: 166 % of control | T/C (dose: 14.0 mg/kg/injection, schedule: Q04DX003 (ip), vehicle: saline with Tween-80): 168 % of control | T/C (dose: 16.0 mg/kg/injection, schedule: Q01DX009 (ip), vehicle: saline with Tween-80): 181 % of control and 183 % of control | T/C [11]: 227 % of control | T/C (dose: 22.0 mg/kg/injection, schedule: Q04DX003 (ip), vehicle: saline with Tween-80): 159 % of control and 177 % of control and 204 % of control | T/C (dose: 33.0 mg/kg/injection, schedule: Q04DX003 (ip), vehicle: saline with Tween-80): 250 % of control and 177 % of control | T/C (dose: 37.5 mg/kg/injection, schedule: Q01DX009 (ip), vehicle: saline with Tween-80): 233 % of control and 194 % of control | T/C [2]: 250 % of control and 190 % of control | T/C (dose: 75.0 mg/kg/injection, schedule: Q04DX003 (ip), vehicle: saline with Tween-80): 231 % of control and 200 % of control

COc1ccc(C(O)CN)cc1 (stereo not drawn)
T/C [12]: 98 % of control | T/C [13]: 97 % of control | T/C [14]: 96 % of control

CC(=O)OCC(=O)[C@@]1(O)CC[C@H]2[C@@H]3C[C@H](F)C4=CC(=O)CC[C@]4(C)[C@H]3[C@@H](O)C[C@@]21C
T/C [15]: 109 % of control | T/C [16]: 118 % of control | T/C [1]: 118 % of control

O=[N+]([O-])c1ccc(S(=O)(=O)Cc2ccccc2)c2c1no[n+]2[O-]
T/C [16]: 116 % of control | T/C [1]: 116 % of control

Cc1ccc(NCC(O)CN2CCOCC2)cc1 (stereo not drawn)
T/C [17]: 108 % of control

NC(=S)n1cccn1
T/C (dose: 50.0 mg/kg/injection, schedule: Q01DX010 (ip), vehicle: water): 118 % of control

c1ccc(Cn2ccnc2)cc1
T/C (dose: 3.12 mg/kg/injection, schedule: Q01DX009 (ip), vehicle: water): 87 % of control | T/C (dose: 6.25 mg/kg/injection, schedule: Q01DX009 (ip), vehicle: water): 92 % of control | T/C (dose: 12.5 mg/kg/injection, schedule: Q01DX009 (ip), vehicle: water): 87 % of control | T/C (dose: 25.0 mg/kg/injection, schedule: Q01DX009 (ip), vehicle: water): 99 % of control | T/C (dose: 50.0 mg/kg/injection, schedule: Q01DX009 (ip), vehicle: water): 100 % of control | T/C (dose: 100.0 mg/kg/injection, schedule: Q01DX009 (ip), vehicle: water): 86 % of control

CN(CC[N+]1(C)CCCC1)P(=O)(N1CCCC1)N1CCCC1
T/C (dose: 50.0 mg/kg/injection, schedule: Q01DX009 (ip), vehicle: saline): 106 % of control | T/C (dose: 100.0 mg/kg/injection, schedule: Q01DX009 (ip), vehicle: saline): 101 % of control | T/C (dose: 200.0 mg/kg/injection, schedule: Q01DX009 (ip), vehicle: saline): 109 % of control

O=C(C=C(C(F)(F)F)C(F)(F)F)c1ccccc1Cl
T/C [9]: 109 % of control | T/C [11]: 118 % of control | T/C [16]: 118 % of control

O=C(O)CC1SC(=S)N(c2ccccc2)C1=O (stereo not drawn)
T/C [1]: 101 % of control | T/C [3]: 105 % of control

O=NN(CCCl)C(=O)Nc1c[nH]c(=O)[nH]c1=O
T/C (dose: 0.08 mg/kg/injection, schedule: Q04DX003 (ip), vehicle: saline with Tween-80): 155 % of control | T/C (dose: 0.09 mg/kg/injection, schedule: Q04DX003 (ip), vehicle: saline with Tween-80): 100 % of control | T/C (dose: 0.15 mg/kg/injection, schedule: Q04DX003 (ip), vehicle: saline with Tween-80): 180 % of control | T/C (dose: 0.3 mg/kg/injection, schedule: Q04DX003 (ip), vehicle: saline with Tween-80): 185 % of control | T/C (dose: 0.78 mg/kg/injection, schedule: Q04DX003 (ip), vehicle: saline with Tween-80): 175 % of control | T/C (dose: 1.56 mg/kg/injection, schedule: Q04DX003 (ip), vehicle: saline with Tween-80): 154 % of control | T/C (dose: 2.4 mg/kg/injection, schedule: Q01DX009 (ip), vehicle: saline with Tween-80): 186 % of control | T/C (dose: 3.12 mg/kg/injection, schedule: Q04DX003 (ip), vehicle: saline with Tween-80): 213 % of control | T/C (dose: 3.6 mg/kg/injection, schedule: Q01DX009 (ip), vehicle: saline with Tween-80): 201 % of control | T/C [7]: 195 % of control | T/C (dose: 5.5 mg/kg/injection, schedule: Q01DX009 (ip), vehicle: saline with Tween-80): 193 % of control | T/C (dose: 6.0 mg/kg/injection, schedule: Q01DX009 (ip), vehicle: saline with Tween-80): 229 % of control | T/C (dose: 6.25 mg/kg/injection, schedule: Q04DX003 (ip), vehicle: saline with Tween-80): 190 % of control | T/C [8]: 220 % of control | T/C (dose: 8.0 mg/kg/injection, schedule: Q04DX003 (ip), vehicle: saline with Tween-80): 204 % of control | T/C (dose: 9.0 mg/kg/injection, schedule: Q01DX009 (ip), vehicle: saline with Tween-80): 120 % of control | T/C [10]: 250 % of control | T/C (dose: 12.0 mg/kg/injection, schedule: Q04DX003 (ip), vehicle: saline with Tween-80): 204 % of control | T/C [15]: 250 % of control | T/C (dose: 12.5 mg/kg/injection, schedule: Q04DX003 (ip), vehicle: saline with Tween-80): 230 % of control | T/C (dose: 18.0 mg/kg/injection, schedule: Q01DX009 (ip), vehicle: saline with Tween-80): 104 % of control | T/C (dose: 18.0 mg/kg/injection, schedule: Q04DX003 (ip), vehicle: saline with Tween-80): 227 % of control | T/C [16]: 100 % of control | T/C (dose: 25.0 mg/kg/injection, schedule: Q04DX003 (ip), vehicle: saline with Tween-80): 230 % of control | T/C [2]: 230 % of control

CCOC(=O)C1CCCC23CC(CC12)C(C)(C)C3Br (stereo not drawn)
T/C [17]: 100 % of control | T/C [18]: 90 % of control | T/C [19]: 100 % of control

CC(C)(C)CC(Cl)Cl
T/C (dose: 75.0 mg/kg/injection, schedule: Q01DX009 (ip), vehicle: Klucel (hydroxypropylcellulose) (HPC)): 100 % of control | T/C [17]: 100 % of control | T/C (dose: 150.0 mg/kg/injection, schedule: Q01DX009 (ip), vehicle: Klucel (hydroxypropylcellulose) (HPC)): 100 % of control | T/C [18]: 100 % of control | T/C [19]: 107 % of control

CCS(=O)C(C)(C)C (stereo not drawn)
T/C [1]: 102 % of control | T/C [3]: 102 % of control | T/C [5]: 102 % of control

N#CCCC(C#N)(CCC#N)c1ccc([N+](=O)[O-])cc1
T/C [3]: 92 % of control | T/C [4]: 101 % of control | T/C [5]: 92 % of control | T/C [6]: 100 % of control | T/C [20]: 92 % of control | T/C (dose: 400.0 mg/kg/injection, schedule: Q04DX003 (ip), vehicle: saline with Tween-80): 102 % of control

CC(C(=O)c1ccc(Br)cc1)C(Br)c1ccccc1 (stereo not drawn)
T/C [1]: 90 % of control | T/C [3]: 113 % of control | T/C [12]: 88 % of control | T/C [5]: 88 % of control | T/C [13]: 99 % of control | T/C [20]: 97 % of control | T/C [14]: 91 % of control
